Laboratory results as given in patent publication US20210246122A1, “Triazine Compounds and Uses Thereof” (Aduro Biotech, Inc., priority 2018, published 2021).

Molecular target: T1, Human cGAS amino acids 155-522 (Homo sapiens, UniProt Q8N884)
T1 construct: hexahistidine tag (N, cleaved yes); made in house; host or cells: E. coli BL21 DE3 Rosetta 2
Assay: cGAS activity assay (DNA-activated cGAS, remaining ATP measured by Kinase-Glo Max luciferase assay)
Assay type: biochemical
Conditions: 300 nM purified cGAS, 1 μM dsDNA, 250 μM ATP, 100 μM GTP, 37° C. for 1.25 hours
Description: IC50 values were determined as follows:
Human cGAS sequence encoding amino acids 155-522 was cloned into a pET (EMD Millipore) based expression plasmid. The resulting construct contained a tandem N-terminal hexahistidine tag, maltose binding protein fusion followed by a tobacco etch virus protease cleavable linker preceding cGAS amino acids 155-522.
Construct sequence: Amino acids 155-522, Human cGAS
Protein was expressed and purified from E. coli BL21 DE3 Rosetta 2 (EMD Millipore) cells using standard techniques. Cells were grown in 2× yeast extract tryptone medium and expression was initiated via the addition of isopropyl β-D-1-thiogalactopyranoside. Expression proceeded overnight at 18° C. Cells were harvested by centrifugation and subsequently lysed via sonication. Insoluble fraction was removed by centrifugation. Maltose binding protein (MBP) fusion proteins were purified on a dextrin sepharose column (GE Healthcare) and the MBP tag was removed using tobacco etch virus protease overnight during dialysis. Protein was further purified on a heparin column (GE Healthcare) and eluted using a NaCl gradient. Column fraction were pooled and further purified on a Superdex 75 gel filtration column (GE Healthcare). Protein was quantified using 280 nm absorbance. Protein was then flash frozen in liquid nitrogen and stored at −80° C. until use.
Potential antagonists were diluted in 100% dimethyl sulfoxide and added to the reaction. Final dimethyl sulfoxide concentration was 5%. The compounds were tested from 1 μM with either 3- or 4-fold serial dilutions down to 0.000051 or 0.000004 μM respectively.
Two complementary DNA oligos (IDT DNA) were annealed by slow cooling from 95° C. The resulting double stranded DNA was used to activate cGAS.
Reactions were performed at 37° C. for 1.25 hours. Reaction buffer: 20 mM Tris HCl pH 9, 100 mM NaCl, 5 mM MgCl2, 0.1 mg/ml bovine gamma globulin, 250 μM adenosine triphosphate, 100 μM guanosine triphosphate, 0.5 mM Tris(2-carboxyethyl)phosphine hydrochloride, 1 μM double stranded DNA and 300 nM purified cGAS protein.
Reactions were stopped and ATP levels in the reaction were measured using a luciferase based assay. Promega Kinase-Glo Max Assay. Luminescence was measured on a plate reader (Molecular Devices). Values were normalized to control wells lacking compound.

T1 sequence (Q8N884 157-522): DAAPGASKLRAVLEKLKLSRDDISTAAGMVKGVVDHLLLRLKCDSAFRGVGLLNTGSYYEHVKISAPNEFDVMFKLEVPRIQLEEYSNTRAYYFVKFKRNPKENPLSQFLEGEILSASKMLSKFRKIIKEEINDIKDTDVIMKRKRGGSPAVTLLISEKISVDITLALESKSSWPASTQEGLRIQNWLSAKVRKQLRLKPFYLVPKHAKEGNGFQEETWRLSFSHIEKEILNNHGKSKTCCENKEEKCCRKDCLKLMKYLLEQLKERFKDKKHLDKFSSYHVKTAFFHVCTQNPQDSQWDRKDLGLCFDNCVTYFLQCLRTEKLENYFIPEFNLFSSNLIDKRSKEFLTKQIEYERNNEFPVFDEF

`COC(=O)[C@H](Cc1ccc(C#N)cc1)Nc1nc(NCc2nccn2C)nc(Nc2cccc(CN3CCN(C(=O)c4nccnc4O)CC3)c2)n1` [TA1034, methyl (S)-3-(4-cyanophenyl)-2-((4-((3-((4-(3-hydroxypyrazine-2-carbonyl)piperazin-1-yl)methyl)phenyl)amino)-6-(((1-methyl-1H-imidazol-2-yl)methyl)amino)-1,3,5-triazin-2-yl)amino)propanoate] showed an IC50 greater than 250 µM.

Compound `CNc1nc(Nc2cccc(CN3CCN(C(=O)c4nccnc4O)CC3)c2)nc(N[C@@H](Cc2ccc(C#N)cc2)C(=O)OC)n1` [TA1035, methyl (S)-3-(4-cyanophenyl)-2-((4-((3-((4-(3-hydroxypyrazine-2-carbonyl)piperazin-1-yl)methyl)phenyl)amino)-6-(methylamino)-1,3,5-triazin-2-yl)amino)propanoate] has an IC50 greater than 250 µM.

`CN(C)C(=O)[C@H](Cc1ccc(C#N)cc1)Nc1nc(NCc2nc3cc(F)ccc3[nH]2)nc(Nc2cccc(CN3CCN(C(=O)OC(C)(C)C)CC3)c2)n1` [TA1036, tert-butyl (S)-4-(3-((4-((3-(4-cyanophenyl)-1-(dimethylamino)-1-oxopropan-2-yl)amino)-6-(((5-fluoro-1H-benzo[d]imidazol-2-yl)methyl)amino)-1,3,5-triazin-2-yl)amino)benzyl)piperazine-1-carboxylate] was tested, and the IC50 was greater than 250 µM.

`COC(=O)[C@H](Cc1ccc(C#N)cc1)Nc1nc(NCc2ccccc2)nc(Nc2cccc(CN3CCNCC3)c2)n1` [TA1049, methyl (S)-2-((4-(benzylamino)-6-((3-(piperazin-1-ylmethyl)phenyl)amino)-1,3,5-triazin-2-yl)amino)-3-(4-cyanophenyl)propanoate] gave an IC50 greater than 250 µM.

`COC(=O)[C@H](Cc1ccc(C#N)cc1)Nc1nc(NCc2ccccc2)nc(Nc2cccc(CN3CCN(C(=O)c4nccnc4O)CC3)c2)n1` [TA1050, methyl (S)-2-((4-(benzylamino)-6-((3-((4-(3-hydroxypyrazine-2-carbonyl)piperazin-1-yl)methyl)phenyl)amino)-1,3,5-triazin-2-yl)amino)-3-(4-cyanophenyl)propanoate] gave an IC50 of 20 to 250 µM.

Compound `COC(=O)[C@H](Cc1ccc(C#N)cc1)Nc1nc(Nc2cccc(CN3CCNCC3)c2)nc(N(C)CCc2nc3ccc(OC)cc3[nH]2)n1` [TA1052, methyl (S)-3-(4-cyanophenyl)-2-((4-((2-(6-methoxy-1H-benzo[d]imidazol-2-yl)ethyl)(methyl)amino)-6-((3-(piperazin-d-ylmethyl)phenyl)amino)-1,3,5-triazin-2-yl)amino)propanoate] has an IC50 of 20 to 250 µM.

`COC(=O)[C@H](Cc1ccc(C#N)cc1)Nc1nc(Nc2cccc(CN3CCN(C(=O)c4cnccn4)CC3)c2)nc(N(C)CCc2nc3ccc(OC)cc3[nH]2)n1` [TA1054, methyl (S)-3-(4-cyanophenyl)-2-((4-((2-(6-methoxy-1H-benzo[d]imidazol-2-yl)ethyl)(methyl)amino)-6-((3-((4-(pyrazine-2-carbonyl)piperazin-1-yl)methyl)phenyl)amino)-1,3,5-triazin-2-yl)amino)propanoate] was tested, and the IC50 was greater than 250 µM.

Compound `COC(=O)[C@H](Cc1ccc(C#N)cc1)Nc1nc(Nc2cccc(CN3CCN(C(=O)c4csnn4)CC3)c2)nc(N(C)CCc2nc3ccc(OC)cc3[nH]2)n1` [TA1055, methyl (S)-2-((4-((3-((4-(1,2,3-thiadiazole-4-carbonyl)piperazin-1-yl)methyl)phenyl)amino)-6-((2-(6-methoxy-1H-benzo[d]imidazol-2-yl)ethyl)(methyl)amino)-1,3,5-triazin-2-yl)amino)-3-(4-cyanophenyl)propanoate] has an IC50 greater than 250 µM.

Compound `COC(=O)[C@H](Cc1ccc(C#N)cc1)Nc1nc(Nc2cccc(CN3CCN(C(=O)[C@@H]4CCCO4)CC3)c2)nc(N(C)CCc2nc3ccc(OC)cc3[nH]2)n1` [TA1056, methyl (S)-3-(4-cyanophenyl)-2-((4-((2-(6-methoxy-1H-benzo[d]imidazol-2-yl)ethyl)(methyl)amino)-6-((3-((4-((S)-tetrahydrofuran-2-carbonyl)piperazin-1-yl)methyl)phenyl)amino)-1,3,5-triazin-2-yl)amino)propanoate] has an IC50 greater than 250 µM.

Compound `COC(=O)[C@H](Cc1ccc(C#N)cc1)Nc1nc(NCc2nc3cc(Cl)ccc3[nH]2)nc(Nc2cccc(CN3CCNCC3)c2)n1` [TA1058, methyl (S)-2-((4-(((5-chloro-1H-benzo[d]imidazol-2-yl)methyl)amino)-6-((3-(piperazin-1-ylmethyl)phenyl)amino)-1,3,5-triazin-2-yl)amino)-3-(4-cyanophenyl)propanoate] has an IC50 of 20 to 250 µM.

`COC(=O)[C@H](Cc1ccc(C#N)cc1)Nc1nc(NCc2nc3cc(Cl)ccc3[nH]2)nc(Nc2cccc(CN3CCN(C(=O)c4cccc(-n5cccn5)c4)CC3)c2)n1` [TA1060, methyl (S)-2-((4-((3-((4-(3-(1H-pyrazol-1-yl)benzoyl)piperazin-1-yl)methyl)phenyl)amino)-6-(((5-chloro-1H-benzo[d]imidazol-2-yl)methyl)amino)-1,3,5-triazin-2-yl)amino)-3-(4-cyanophenyl)propanoate] gave an IC50 greater than 250 µM.

For `COC(=O)[C@H](Cc1ccc(C#N)cc1)Nc1nc(NCc2nc3cc(Cl)ccc3[nH]2)nc(Nc2cccc(CN3CCN(C=O)CC3)c2)n1` [TA1062, methyl (S)-2-((4-(((5-chloro-1H-benzo[d]imidazol-2-yl)methyl)amino)-6-((3-((4-formylpiperazin-1-yl)methyl)phenyl)amino)-1,3,5-triazin-2-yl)amino)-3-(4-cyanophenyl)propanoate], the IC50 was 20 to 250 µM.

Compound `COC(=O)[C@H](Cc1ccccc1)Nc1nc(NCc2nc3cc(F)ccc3[nH]2)nc(Nc2cccc(CN3CCNCC3)c2)n1` [TA1064, methyl (4-(((5-fluoro-1H-benzo[d]imidazol-2-yl)methyl)amino)-6-((3-(piperazin-1-ylmethyl)phenyl)amino)-1,3,5-triazin-2-yl)phenylalaninate] has an IC50 greater than 250 µM.

`COC(=O)[C@H](Cc1ccc(C#N)cc1)Nc1nc(NCc2nnn[nH]2)nc(Nc2cccc(CN3CCNCC3)c2)n1` [TA1068, methyl (S)-2-((4-(((1H-tetrazol-5-yl)methyl)amino)-6-((3-(piperazin-1-ylmethyl)phenyl)amino)-1,3,5-triazin-2-yl)amino)-3-(4-cyanophenyl)propanoate] was tested, and the IC50 was greater than 250 µM.

In the case of `COC(=O)[C@H](Cc1ccc(C#N)cc1)Nc1nc(NCc2nnn[nH]2)nc(Nc2cccc(CN3CCN(C(=O)c4nccnc4O)CC3)c2)n1` [TA1069, methyl (S)-2-((4-(((1H-tetrazol-5-yl)methyl)amino)-6-((3-((4-(3-hydroxypyrazine-2-carbonyl)piperazin-1-yl)methyl)phenyl)amino)-1,3,5-triazin-2-yl)amino)-3-(4-cyanophenyl)propanoate], the IC50 is reported as greater than 250 µM.

In the case of `COC(=O)[C@H](CC1CCCCC1)Nc1nc(NCc2nc3cc(F)ccc3[nH]2)nc(Nc2cccc(CN3CCN(C(=O)c4nccnc4O)CC3)c2)n1` [TA1072, methyl (S)-3-cyclohexyl-2-((4-(((5-fluoro-1H-benzo[d]imidazol-2-yl)methyl)amino)-6-((3-((4-(3-hydroxypyrazine-2-carbonyl)piperazin-1-yl)methyl)phenyl)amino)-1,3,5-triazin-2-yl)amino)propanoate], the IC50 is reported as less than 20 µM.

For `Cc1cc2nc(CN(C)c3nc(Nc4cccc(CN5CCN(S(=O)(=O)c6cnn(C)c6C)CC5)c4)nc(N[C@@H](Cc4ccc(C#N)cc4)C(=O)N(C)C)n3)[nH]c2cc1C` [TA1073, (S)-3-(4-cyanophenyl)-2-((4-(((5,6-dimethyl-1H-benzo[d]imidazol-2-yl)methyl)(methyl)amino)-6-((3-((4-((1,5-dimethyl-1H-pyrazol-4-yl)sulfonyl)piperazin-1-yl)methyl)phenyl)amino)-1,3,5-triazin-2-yl)amino)-N,N-dimethylpropanamide], the IC50 was greater than 250 µM.

For `COC(=O)[C@H](Cc1ccc(C#N)cc1)Nc1nc(Nc2cccc(CN3CCN(C(=O)c4nccnc4O)CC3)c2)nc(OC)n1` [TA1074, methyl (S)-3-(4-cyanophenyl)-2-((4-((3-((4-(3-hydroxypyrazine-2-carbonyl)piperazin-1-yl)methyl)phenyl)amino)-6-methoxy-1,3,5-triazin-2-yl)amino)propanoate], the IC50 was greater than 250 µM.

With `COC(=O)[C@H](Cc1ccc(C#N)cc1)Nc1nc(NCc2nc3cc(F)ccc3[nH]2)nc(Nc2cccc(CN3CCN(C(C)=O)CC3)c2)n1` [TA1075, methyl (S)-2-((4-((3-((4-acetylpiperazin-1-yl)methyl)phenyl)amino)-6-(((5-fluoro-1H-benzo[d]imidazol-2-yl)methyl)amino)-1,3,5-triazin-2-yl)amino)-3-(4-cyanophenyl)propanoate] the IC50 was greater than 250 µM.
